Among the targets are Carbonic anhydrase 9 (Homo sapiens, UniProt Q16790); Carbonic anhydrase 1 (Homo sapiens, UniProt P00915); Carbonic anhydrase 12 (Homo sapiens, UniProt O43570).
The subject of data set [1] is 4T1. The data set can be described thus: Antimetastatic activity against mouse 4T1 cells expressing luciferase xenografted in BALB/c mouse assessed as reduction in metastasic burden in lungs at 15 to 30 mg/kg, ip qd administered 24 hrs after challenge for 5 days measured 24 hrs post last dose by bioluminescent technique relative to control. Type of data set: functional, organism-based.

The test system of data set [2] is Mus musculus. The data set can be described thus: Toxicity in BALB/c mouse assessed as body weight loss at 15 to 30 mg/kg, ip qd for 5 days. On the set-up: dose 15-30 mg/kg, route intraperitoneal. The data set is classed as organism-based. To be noted: in vivo, 120 h.
Data set [3] has as its system 4T1. The data set can be described thus: Antimetastatic activity against mouse 4T1 cells expressing luciferase xenografted in BALB/c mouse assessed as limiting colonization of the cells in the lungs at 15 to 45 mg/kg, ip administered as 3 doses on alternate days measured 24 hrs post last dose by bioluminescent technique relative to control. The data set is classed as functional, organism-based.

In data set [4] the test system is Mus musculus. The data set can be described thus: Toxicity in BALB/c mouse assessed as body weight loss at 15 to 45 mg/kg, ip qd administered as 3 doses on alternate days. Further details: dose 15-45 mg/kg, route intraperitoneal. To be noted: in vivo. Type of data set: organism-based.

As usually defined, the Ki is a dissociation constant, usually derived from enzyme kinetics or from competition with a known ligand.

Activity calls are given as the source filed them. No cut-off for these calls is given here.

Chain of Carbonic anhydrase 12 (O43570 whole entry): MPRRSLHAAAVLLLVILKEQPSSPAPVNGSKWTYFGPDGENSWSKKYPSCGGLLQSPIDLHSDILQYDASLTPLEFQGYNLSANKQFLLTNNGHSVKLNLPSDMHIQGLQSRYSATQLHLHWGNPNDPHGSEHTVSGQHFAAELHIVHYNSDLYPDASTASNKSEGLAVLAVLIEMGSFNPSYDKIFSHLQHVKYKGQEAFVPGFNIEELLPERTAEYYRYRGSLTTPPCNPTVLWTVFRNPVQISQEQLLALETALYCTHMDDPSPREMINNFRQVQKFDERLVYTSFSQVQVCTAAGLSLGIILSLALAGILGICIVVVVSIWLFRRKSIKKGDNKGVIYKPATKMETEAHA
Chain of Carbonic anhydrase 1 (P00915 whole entry): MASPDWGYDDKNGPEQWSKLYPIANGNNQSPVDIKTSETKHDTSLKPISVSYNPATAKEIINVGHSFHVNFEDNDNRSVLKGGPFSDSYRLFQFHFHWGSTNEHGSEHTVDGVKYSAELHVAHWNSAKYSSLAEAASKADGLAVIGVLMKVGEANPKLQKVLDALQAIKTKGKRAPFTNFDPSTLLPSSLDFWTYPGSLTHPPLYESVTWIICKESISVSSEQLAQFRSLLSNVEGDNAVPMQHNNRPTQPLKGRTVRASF
Description for Carbonic anhydrase 12: Inhibition of tumor-associated human carbonic anhydrase 12 preincubated for 15 min by CO2 hydration assay
Description for Carbonic anhydrase 9: Inhibition of tumor-associated human carbonic anhydrase 9 preincubated for 15 min by CO2 hydration assay

With `NS(=O)(=O)c1ccc(NC(=O)Nc2ccc(Oc3ccccc3)cc2)cc1`, the values for the inhibition constant (Ki) at Carbonic anhydrase 9, on Carbonic anhydrase 1 and on Carbonic anhydrase 12 were 69.1 nM, 604 nM and 7.1 nM, respectively.

For the compound `NS(=O)(=O)c1ccc(NC(=O)Nc2ccc(Cl)cc2)cc1`, at Carbonic anhydrase 12, the Ki was 5.3 nM.

`COc1ccc(NC(=O)Nc2ccc(S(N)(=O)=O)cc2)c(C)c1`: at Carbonic anhydrase 12, the affinity, expressed as Ki, was 6 nM.

Take `CC(=O)c1ccc(NC(=O)Nc2ccc(S(N)(=O)=O)cc2)cc1`: the result in the data set with 4T1 [1] was inactive. For the same compound, in the data set with Mus musculus [2], the Activity entry was “Non-toxic”. For the same compound, at Carbonic anhydrase 12, the Ki worked out at 4.6 nM.

`CCCCOc1ccc(NC(=O)Nc2ccc(S(N)(=O)=O)cc2)cc1`: the values for the Ki at Carbonic anhydrase 9 and on Carbonic anhydrase 12 were 0.8 nM and 2.5 nM, respectively.

With `NS(=O)(=O)c1ccc(NC(=O)Nc2ccc(I)cc2)cc1`, the Ki amounted to 24.5 nM on Carbonic anhydrase 9 and 4.3 nM on Carbonic anhydrase 12.

Regarding `NS(=O)(=O)c1ccc(NC(=O)Nc2ccc(Br)cc2)cc1`, the Ki on Carbonic anhydrase 9 amounted to 69.3 nM; on Carbonic anhydrase 12, 7.9 nM.

At Carbonic anhydrase 9, `NS(=O)(=O)c1ccc(NC(=O)Nc2cccc([N+](=O)[O-])c2)cc1` displayed a Ki of 0.9 nM. Moreover, the Activity result is “Dose-dependent effect” with 4T1 [3] and “Non-toxic” in the data set on Mus musculus [4].

For `N#Cc1ccccc1NC(=O)Nc1ccc(S(N)(=O)=O)cc1`, the Ki at Carbonic anhydrase 9 is 0.3 nM; on Carbonic anhydrase 1 it was 10.9 nM; on Carbonic anhydrase 12, 4.6 nM.

For the compound `CCCCc1ccc(NC(=O)Nc2ccc(S(N)(=O)=O)cc2)cc1`, the figures for the Ki at Carbonic anhydrase 9 and at Carbonic anhydrase 12 were 376 nM and 28.5 nM, respectively.

Regarding `CC(C)c1ccccc1NC(=O)Nc1ccc(S(N)(=O)=O)cc1`, the Ki at Carbonic anhydrase 9 turned out to be 0.5 nM; on Carbonic anhydrase 12 it was 4.2 nM.

Consider `N#Cc1ccc(NC(=O)Nc2ccc(S(N)(=O)=O)cc2)cc1`, for which the values for the Ki on Carbonic anhydrase 9, on Carbonic anhydrase 1 and at Carbonic anhydrase 12 were 6 nM, 57 nM and 6.5 nM, respectively.

For `COc1ccccc1NC(=O)Nc1ccc(S(N)(=O)=O)cc1`, the inhibitory constant (Ki) on Carbonic anhydrase 9 came to 465 nM; at Carbonic anhydrase 1 it was 92 nM; at Carbonic anhydrase 12 it was 61.2 nM.

Turning to `CC(C)c1ccc(NC(=O)Nc2ccc(S(N)(=O)=O)cc2)cc1`, the results for the inhibitory constant (Ki) at Carbonic anhydrase 9 and on Carbonic anhydrase 12 were 541 nM and 49.7 nM, respectively.

These data come from ChEMBL document CHEMBL1687939 (J Med Chem, 2011).
